“And” between values parts separate entries of the source, which are not always exact repeats. Identical values can stand only once. Ends that are not written are not given here. * marks the point of attachment. Biotin = O=C1N[C@H]2[C@H](CS[C@H]2CCCCC(=O)*)N1
Columns and labels:
[1] = system: sera from ewes known not to have been infected with C. abortus; SPF lamb antisera; assay: ELISA, specificity of peptides with sera from uninfected ewes and SPF lamb antisera (first Table 4); type: binding, sheep; parameters: reactivity with serum (quantity not given): unit not given here
Description: (§1) Application of the peptide mixture is performed as follows:
(§2) Two dilutions of standard serum are used.
Specificities of Peptides 2-9,2-10, 1B, 1A/1A and 4B/4B as tested with sera from ewes known not to have been infected with C. abortus, and which had shown positive reactivity in previous tests with various forms of VS 1 and VS2.

antibodies to C. abortus = assay: ELISA, serological reactivity of biotinylated peptides against serum dilutions (Tables 1 and 2); type: binding, sheep
Description: as §1, §2
The data illustrate that the length of compound has a major impact on serological reactivity.
Thus, substitutions within the core epitopes described in this invention are possible without too much loss in compound serological reactivity.

[2] = SPF lamb antiserum 2397/2 C.ab, vaccinated with S26/3 (C. abortus)
[3] = SPF lamb antiserum 2401/2 C.ab, vaccinated with S26/3 (C. abortus)
[4] = SPF lamb antiserum 2405/2 C.ab, vaccinated with 28/28 (C. abortus)
[5] = SPF lamb antiserum 2406/2 C.ab, vaccinated with 28/68 (C. abortus)
[6] = SPF lamb antiserum 2407/2 W73, vaccinated with W73 (C. pecorum)
[7] = SPF lamb antiserum F6/2 Cap.ab, vaccinated with Cap. abortion 15 (C. abortus)
[8] = SPF lamb serum 2397/1, pre-vaccination

Substance | reactivity with serum (quantity not given) [1, 2] | reactivity with serum (quantity not given) [1, 3] | reactivity with serum (quantity not given) [1, 4] | reactivity with serum (quantity not given) [1, 5] | reactivity with serum (quantity not given) [1, 6] | reactivity with serum (quantity not given) [1, 7] | reactivity with serum (quantity not given) [1, 8] | reactivity with serum (quantity not given) ([1]; serum of animal no. 1354R) | reactivity with serum (quantity not given) ([1]; serum of animal no. 3178) | reactivity with serum (quantity not given) ([1]; serum of animal no. A2213) | reactivity with serum (quantity not given) ([1]; serum of animal no. B2123) | reactivity with serum (quantity not given) ([1]; serum of animal no. Z2611) | Net Optical Density (antibodies to C. abortus; serum dilution 1/100) | Net Optical Density (antibodies to C. abortus; serum dilution 1/200) | Net Optical Density (antibodies to C. abortus; serum dilution 1/400) | Net Optical Density (antibodies to C. abortus; serum dilution 1/800) | Net Optical Density (antibodies to C. abortus; serum dilution 1/1600) | Net Optical Density (antibodies to C. abortus; serum dilution 1/3200) | Net Optical Density (antibodies to C. abortus; serum dilution 1/6400) | reactivity with serum (quantity not given) ([1]; serum of animal no. 2948) | further results
KTITGMTGTAAANYKTITGM (KTITGMTGTAAANYKTITGM) [Compound 1B] | OVER | OVER | OVER | OVER | 1.3 | 0.9 | OVER | 2.3 | 0.7 | OVER | 1.55 | 0.6 | – | – | – | – | – | – | – | – | reactivity with serum (quantity not given) ([1]; serum of animal no. Z2680): 0.5
Biotin-KKKKKKKKKKKGSSIAAD [Compound 2-3] | – | – | – | – | – | – | – | – | – | – | – | – | 2.075 | 1.133 | 0.540 | 0.214 | 0.095 | 0.031 | 0.007 | – | –
Biotin-KKKKKGLIGVKGSSIAAD [Compound 2-5] | – | – | – | – | – | – | – | – | – | – | – | – | 2.344 | 1/468 and 1.468 | 0.771 | 0.358 | 0.156 | 0.066 | 0.036 | – | –
GVKGSSIAADQGVKGSSIAADQ (GVKGSSIAADQGVKGSSIAADQ) [Compound 2-10] | 3.1 | 1.5 | 2.6 | 1.6 | – | – | – | 0.9 | – | – | – | – | – | – | – | – | – | – | – | 0.5 | reactivity with serum (quantity not given) ([1]; serum of animal no. 1715T): 0.3; reactivity with serum (quantity not given) ([1]; serum of animal no. 3174): 1.3; reactivity with serum (quantity not given) ([1]; serum of animal no. A2332): 1.0; reactivity with serum (quantity not given) ([1]; serum of animal no. Z2600): 1.1; reactivity with serum (quantity not given) ([1]; serum of animal no. Z2708): 0.55
ATALDTSNKFATALDTSNKFA (ATALDTSNKFATALDTSNKFA) [Compound 4B/4B] | – | – | – | OVER | 0.8 | 0.7 | 0.8 | – | 0.6 | OVER | 0.4 | – | – | – | – | – | – | – | – | – | reactivity with serum (quantity not given) ([1]; SPF lamb antiserum F1/2 S45, vaccinated with S45 (C. suis)): 1.2; reactivity with serum (quantity not given) ([1]; SPF lamb antiserum F8/2 P787, vaccinated with P787 (C. pecorum)): 0.4; reactivity with serum (quantity not given) ([1]; SPF lamb serum F1/1, pre-vaccination): 0.5; reactivity with serum (quantity not given) ([1]; serum of animal no. 3201): 1.7; reactivity with serum (quantity not given) ([1]; serum of animal no. A2261): 0.4; reactivity with serum (quantity not given) ([1]; serum of animal no. X2895): 0.5; reactivity with serum (quantity not given) ([1]; serum of animal no. X2899): 0.4; reactivity with serum (quantity not given) ([1]; serum of animal no. Z148): 0.7; reactivity with serum (quantity not given) ([1]; serum of animal no. Z2618): 0.55; reactivity with serum (quantity not given) ([1]; serum of animal no. Z2646): 1.0; reactivity with serum (quantity not given) ([1]; serum of animal no. Z2739): 0.4
TGTAAANYKTTGTAAANYKT (TGTAAANYKTTGTAAANYKT) [Compound 1A/1A] | OVER | OVER | OVER | OVER | 1.8 | 0.9 | OVER | 2.3 | – | OVER | 2.0 | 1.0 | – | – | – | – | – | – | – | 0.6 | specificity compared with 1B (in words) [1]: less specific; reactivity with serum (quantity not given) ([1]; SPF lamb antiserum F4/2 84-796, vaccinated with 84-796 (C. pecorum)): 0.4; reactivity with serum (quantity not given) ([1]; SPF lamb antiserum F7/2 P787, vaccinated with P787 (C. pecorum)): 0.5; reactivity with serum (quantity not given) ([1]; serum of animal no. A2261): 0.7; reactivity with serum (quantity not given) ([1]; serum of animal no. Y10-8-14): 1.2; reactivity with serum (quantity not given) ([1]; serum of animal no. Y10-8-37): 0.8; reactivity with serum (quantity not given) ([1]; serum of animal no. Z2646): 0.4; reactivity with serum (quantity not given) ([1]; serum of animal no. Z2656): 0.66

— patent publication US20030186887A1, “Compounds for detection of infection by chlamydophila abortus” (priority 2000, published 2003)
